The results in this text go back to patent US8309685B2 (Celgene Avilomics Research, Inc., priority 2007, dated 2012).

The subject of assay [1] is HCV RNA replicon in cell line ET (luc-ubi-neo/ET), human Huh7 hepatoma. Kind of assay: Method A: HCV RNA replicon antiviral assay (luciferase, ET cell line). To be noted: Hepatitis C virus, Huh-7, assay described in Example 22; for IC50: read-out: Replicon (IC50). The class given is cell-based, Hepatitis C virus. In short, it runs like this: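 ET replicon cells (Huh7 carrying luciferase-reporter HCV replicon) plated at 5×10^3 cells/well and exposed 72 hr to six 3-fold drug concentrations in DMEM/5% FBS. Replicon luciferase gave EC50/EC90; CytoTox-1 cell counts gave IC50 (viability); […]. Interferon alpha-2b served as positive control.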
For orientation: A replicon is a self-replicating genome or part of one, used to study replication in cells.

Assay [2] addresses T1, wild type HCV NS3/4A 1b protease enzyme (Hepatitis C virus genotype 1b, UniProt P26663).
T1 construct: 10× stocks of NS3/4A protease enzyme from Bioenza (Mountain View, Calif.); purchased Bioenza (Mountain View, Calif.)
As to the kind of experiment: HCV Protease FRET Assay (IC50_APP), wild type. The class given is biochemical.

Assay [3] has as its target T2, A156T mutant of the HCV NS3/4A 1b protease enzyme (Hepatitis C virus genotype 1b, UniProt P26663, A1182T).
T2 construct: 10× stocks of NS3/4A protease enzyme from Bioenza (Mountain View, Calif.); purchased Bioenza (Mountain View, Calif.)
As to the kind of experiment: HCV Protease FRET Assay (IC50_APP), A156T mutant. The format is biochemical. To be noted: apparent IC50, A156T mutant; read-out: IC50_APP, HCV A156T.

The target in assay [4] is T3, D168A mutant of the HCV NS3/4A 1b protease enzyme (Hepatitis C virus genotype 1b, UniProt P26663, D1194A).
T3 construct: 10× stocks of NS3/4A protease enzyme from Bioenza (Mountain View, Calif.); purchased Bioenza (Mountain View, Calif.)
As to the kind of experiment: HCV Protease FRET Assay (IC50_APP), D168A mutant. The format is biochemical.

Assay [5] has as its target T4, R155K mutant of the HCV NS3/4A 1b protease enzyme (Hepatitis C virus genotype 1b, UniProt P26663, R1181K).
T4 construct: 10× stocks of NS3/4A protease enzyme from Bioenza (Mountain View, Calif.); purchased Bioenza (Mountain View, Calif.)
As to the kind of experiment: HCV Protease FRET Assay (IC50_APP), R155K mutant. The format is biochemical. The procedure:
HCV Protease FRET Assay for WT and Mutated NS3/4A 1b Enzymes (IC50—APP).
The following protocol was used to generate “apparent” IC50 (IC50—APP) values as depicted in Table 6, below. […] 5 μL of each enzyme were added to Corning (#3575) 384-well, black, microtiter plates (Corning, N.Y.) after spotting a 0.5 μL volume of 50% DMSO and serially diluted compounds prepared in 50% DMSO. Protease reactions were immediately started after enzyme addition with the addition of 45 μL of the FRET substrate and monitored for 60-90 minutes at λex485/λem520 in a Synergy^4 plate reader from BioTek (Winooski, Vt.). At the conclusion of each assay, progress curves from each well were examined for linear reaction kinetics and fit statistics (R^2, 95% confidence intervals, absolute sum of squares).
The compound numbers correspond to the compound numbers in Table 3. […] ;

The subject of assay [6] is HCV RNA replicon in cell line ET (luc-ubi-neo/ET), human Huh7 hepatoma. Kind of assay: Luciferase Assay (Example 35), replicon-derived luciferase activity. The class given is cell-based. To be noted: Hepatitis C virus, Huh-7, assay described in Example 35. The method, then:
The compounds were assayed to evaluate the antiviral activity and cytotoxicity of compounds using replicon-derived luciferase activity. This assay used the cell line ET (luc-ubi-neo/ET), which is a human Huh7 hepatoma cell line that contains an HCV RNA replicon with a stable luciferase (Luc) reporter and cell culture-adaptive mutations. The ET cell line was grown in a 5% CO2 incubator at 37° C. in Dulbecco's modified essential media (DMEM) supplemented with 2 mM L-glutamine, nonessential amino acids, 100 U of penicillin/ml, 100 μg of streptomycin/mL, and 10% fetal bovine serum. G418 (Geneticin; Invitrogen) was added at a final concentration of 400 ug//mL.
All cell culture reagents were obtained from Invitrogen (Carlsbad). Cells were trypsinized (1% trypsin:EDTA) and plated out at 5×10^3 cells/well in white 96-well assay plates (Costar) dedicated to cell number (cytotoxicity) or antiviral activity assessments. Test compounds were added at six 3-fold concentrations each and the assay was run in DMEM, 5% FBS, 1% pen-strep, 1% glutamine, 1% non essential amino acid. Human interferon alpha-2b (PBL Biolabs, New Brunswick, N.J.) was included in each run as a positive control compound. Cells were processed 72 hr post test compound addition when the cells were still subconfluent. Antiviral activity was measured by analyzing replicon-derived luciferase activity using the Steady-Glo Luciferase Assay System (Promega, Madison, Wis.) according to manufacturer's instruction. The number of cells in each well was determined by Cell Titer Blue Assay (Promega). Compound profile was derived by calculating applicable EC50 (effective concentration inhibiting virus replication by 50%), EC90 (effective concentration inhibiting virus replication by 90%), IC50 (concentration decreasing cell viability by 50%) and SI50 (selective index: […]) values.

Where [7] appears, read: apparent IC50, D168A mutant; read-out: IC50_APP, HCV D168A.
Setting [8] is: apparent IC50, R155K mutant; read-out: IC50_APP, HCV R155K.
[9] abbreviates: read-out: IC50_APP, WT, apparent IC50, wild type NS3/4A 1b.

Structures are written as SMILES. Like-named read-outs stand apart in the source and are kept apart here.

Consider `C=CC(=O)NC[C@@H]1NC(=O)OCCC/C=C/c2ccc3ccnc(c3c2)O[C@@H]2C[C@@H](C(=O)N[C@]3(C(=O)NS(=O)(=O)C4CC4)C[C@H]3C=C)N(C2)C1=O` [Compound I-77, (1R,2S)-N-1-cyclopropylsulfonylcarboxamido-2-vinylcyclopropyl (2R,4S,7S,14E)-7-acrylamidomethyl-2H-16,18-etheno-2,5-methano-11H-pyrido[2,3-k][1,10,3,6]dioxadiazacyclononadecine-4-ylcarboxamide], for which the IC90 in assay [1] is 10 to 100 nM. Also, the IC50 in assay [1] is below 10 nM; in assay [2], below 10 nM; in assay [3] it was 100 to 1000 nM; in assay [4] (setting [7]), 100 to 1000 nM; in assay [5] (setting [8]) it was 10 to 100 nM.

`C=CC(=O)NC[C@H](NC(=O)OC1CCCC1)C(=O)N1C[C@H](Oc2nccc3ccc(-c4cccs4)cc23)C[C@H]1C(=O)N[C@]1(C(=O)NS(=O)(=O)C2CC2)C[C@H]1C=C` [Compound I-88, Cyclopentyl-(S)-3-acrylamido-1-((2S,4R)-2-((1R,2S)-1-(cyclopropylsulfonylcarbamoyl)-2-vinylcyclopropylcarbamoyl)-4-(7-(thiophen-2-yl)isoquinolin-1-yloxy)pyrrolidin-1-yl)-1-oxopropan-2-ylcarbamate] returned an IC90 in assay [1] of 10 to 100 nM. Moreover, the IC50 was below 10 nM in assay [1], below 10 nM in assay [2], 100 to 1000 nM in assay [4] (setting [7]) and 1000 to 10000 nM in assay [5] (setting [8]).

On to `C=C[C@@H]1C[C@]1(NC(=O)[C@@H]1C[C@@H](Oc2nccc3ccc(Br)cc23)CN1C(=O)[C@H](CCC(=O)/C(C)=C/C)NC(=O)OC(C)(C)C)C(=O)NS(=O)(=O)C1CC1` [Compound I-91, {1-[4-(7-Bromo-isoquinolin-1-yloxy)-2-(1-cyclopropanesulfonylaminocarbonyl-2-vinyl-cyclopropylcarbamoyl)-pyrrolidine-1-carbonyl]-5-methyl-4-oxo-hept-5-enyl}-carbamic acid tert-butyl ester], for which the IC50 in assay [2] (setting [9]) was below 10 nM; in assay [4] (setting [7]), 1000 to 10000 nM; in assay [5] (setting [8]) it was 100 to 1000 nM. Also, the EC90 in assay [6] fell in the range of 100 to 1000 nM. In assay [6], the half-maximal effective concentration (EC50) was 10 to 100 nM.

Take `C=CC(=O)NC[C@H](NC(=O)OC(C)(C)C)C(=O)N1C[C@H](Oc2nccc3cc(OC)ccc23)C[C@H]1C(=O)N[C@]1(C(=O)NS(=O)(=O)C2CC2)C[C@H]1C=C` [Compound I-92, {1-(Acryloylamino-methyl)-2-[2-(1-cyclopropanesulfonylaminocarbonyl-2-vinyl-cyclopropylcarbamoyl)-4-(6-methoxy-isoquinolin-1-yloxy)-pyrrolidin-1-yl]-2-oxo-ethyl}-carbamic acid tert-butyl ester]: the IC50 in assay [2] (setting [9]) was below 10 nM; in assay [4] (setting [7]), 100 to 1000 nM; in assay [5] (setting [8]), 10 to 100 nM. The compound further had a concentration for an effect of 90% (EC90) in assay [6] of 100 to 1000 nM. Also, the EC50 in assay [6] was 10 to 100 nM.

As to `C=C[C@@H]1C[C@]1(NC(=O)[C@@H]1C[C@@H](Oc2nccc3cc(OC)ccc23)CN1C(=O)[C@H](CCC(=O)/C(C)=C/C)NC(=O)OC(C)(C)C)C(=O)NS(=O)(=O)C1CC1` [Compound I-95, {1-[2-(1-Cyclopropanesulfonylaminocarbonyl-2-vinyl-cyclopropylcarbamoyl)-4-(6-methoxy-isoquinolin-1-yloxy)-pyrrolidine-1-carbonyl]-5-methyl-4-oxo-hept-5-enyl}-carbamic acid tert-butyl ester], the figures for the IC50 in assay [2] (setting [9]), in assay [4] (setting [7]) and in assay [5] (setting [8]) were below 10 nM, 100 to 1000 nM and 10 to 100 nM, respectively. Moreover, the EC90 in assay [6] fell in the range of 100 to 1000 nM. The compound also showed a half-maximal effective concentration (EC50) in assay [6] of 10 to 100 nM.

In the case of `C=CC(=O)NC[C@H](NC(=O)OC(C)(C)C)C(=O)N1C[C@H](Oc2nccc3ccccc23)C[C@H]1C(=O)N[C@]1(C(=O)NS(=O)(=O)C2CC2)C[C@H]1C=C` [Compound I-97, {1-(Acryloylamino-methyl)-2-[2-(1-cyclopropanesulfonylaminocarbonyl-2-vinyl-cyclopropylcarbamoyl)-4-(isoquinolin-1-yloxy)-pyrrolidin-1-yl]-2-oxo-ethyl}-carbamic acid tert-butyl ester], the IC50 in assay [2] (setting [9]) is below 10 nM; in assay [4] (read-out: IC50_APP, HCV D168A; apparent IC50, D168A mutant), 100 to 1000 nM; in assay [5] (read-out: IC50_APP, HCV R155K; apparent IC50, R155K mutant), 100 to 1000 nM. In assay [6], this compound yielded an EC90 of 100 to 1000 nM. Besides, in assay [6], the concentration for a half-maximal effect (EC50) was 100 to 1000 nM.

With `C=CC(=O)N(C)C[C@H](NC(=O)OC(C)(C)C)C(=O)N1C[C@H](Oc2nccc3ccccc23)C[C@H]1C(=O)N[C@]1(C(=O)NS(=O)(=O)C2CC2)C[C@H]1C=C` [Compound I-98, {1-[(Acryloyl-methyl-amino)-methyl]-2-[2-(1-cyclopropanesulfonylaminocarbonyl-2-vinyl-cyclopropylcarbamoyl)-4-(isoquinolin-1-yloxy)-pyrrolidin-1-yl]-2-oxo-ethyl}-carbamic acid tert-butyl ester], the IC50 is 10 to 100 nM in assay [2] (setting [9]), 100 to 1000 nM in assay [4] (setting [7]) and 100 to 1000 nM in assay [5] (setting [8]). This compound also showed a 90% effect concentration (EC90) in assay [6] of 100 to 1000 nM. The EC50 in assay [6] was in the range of 10 to 100 nM.

On to `C=CCN(C[C@H](NC(=O)OC(C)(C)C)C(=O)N1C[C@H](Oc2nccc3cc(OC)ccc23)C[C@H]1C(=O)N[C@]1(C(=O)NS(=O)(=O)C2CC2)C[C@H]1C=C)C(=O)C=C` [Compound I-99, {1-[(Acryloyl-allyl-amino)-methyl]-2-[2-(1-cyclopropanesulfonylaminocarbonyl-2-vinyl-cyclopropylcarbamoyl)-4-(6-methoxy-isoquinolin-1-yloxy)-pyrrolidin-1-yl]-2-oxo-ethyl}-carbamic acid tert-butyl ester], for which the results for the IC50 in assay [2] (setting [9]), in assay [4] (setting [7]) and in assay [5] (setting [8]) were below 10 nM, 1000 to 10000 nM and 100 to 1000 nM, respectively. In assay [6], this compound gave an EC50 of 10 to 100 nM.

For `C=CC(=O)N[C@H](C)C(=O)N1C[C@H](Oc2nccc3cc(OC)ccc23)C[C@H]1C(=O)N[C@]1(C(=O)NS(=O)(=O)C2CC2)C[C@H]1C=C` [Compound I-100], the IC50 in assay [2] (setting [9]) was below 10 nM; in assay [4] (setting [7]), 10 to 100 nM; in assay [5] (setting [8]) it was below 10 nM. This compound also had a half-maximal effective concentration (EC50) in assay [6] of 10 to 100 nM.

Take `C=CC(=O)N[C@@H](C(=O)N1C[C@H](Oc2nccc3cc(OC)ccc23)C[C@H]1C(=O)N[C@]1(C(=O)NS(=O)(=O)C2CC2)C[C@H]1C=C)C(C)C` [Compound I-101]: the IC50 was below 10 nM in assay [2] (setting [9]), 100 to 1000 nM in assay [4] (setting [7]) and 10 to 100 nM in assay [5] (setting [8]). Also, the 50% effective concentration (EC50) in assay [6] fell in the range of 10 to 100 nM.

Regarding `CC[C@@H]1C[C@]1(NC(=O)[C@@H]1C[C@@H](Oc2nccc3cc(OC)ccc23)CN1C(=O)[C@H](CCC(=O)C=C(C)C)NC(=O)OC(C)(C)C)C(=O)NS(=O)(=O)C1CC1` [Compound I-114], the values for the IC50 in assay [2] (setting [9]) and in assay [5] (setting [8]) were below 10 nM and 100 to 1000 nM, respectively. In assay [6], this compound had an EC50 of 10 to 100 nM.

Turning to `C=CC(=O)N[C@@H](C(=O)N1C[C@H](Oc2nccc3cc(OC)ccc23)C[C@H]1C(=O)N[C@]1(C(=O)NS(=O)(=O)C2CC2)C[C@H]1C=C)C(C)(C)O` [Compound I-130], the values for the IC50 in assay [2] (setting [9]) and in assay [4] (setting [7]) were 10 to 100 nM and 100 to 1000 nM, respectively. In assay [6], the EC50 is 100 to 1000 nM.

As a reminder, the IC90 is the concentration needed for an effect of 90%. As usually defined, the EC90 is the concentration at which the effect reaches the 90% level. The low end stands for an effect from little substance, the high end for a need for much substance. As usually defined, the EC50 is the concentration giving half of the maximal effect.
